In the kinase profiling compilation of Christmann-Franck et al. (2016):

Assays:
Experiment in all cases: radiometric filter-binding kinase assay, Kinase HotSpot
Conditions in all cases: compound 0.5 µM; ATP 10 µM
[1] = biological target: AKT2 (human) (UniProt P31751)
[2] = biological target: AKT3 (human) (UniProt Q9Y243)
[3] = biological target: CAMK1G (human) (UniProt Q96NX5)
[4] = biological target: CDK3 CCNE1 (human) (UniProt Q00526+P24864)
[5] = biological target: CDK5 CDK5R1 p25 (human) (UniProt Q00535+Q15078)
[6] = biological target: CDK7 CCNH MNAT1 (human) (UniProt P50613+P51948+P51946)
[7] = biological target: CDK9 CCNT1 (human) (UniProt P50750+O60563)
[8] = biological target: CSF1R (human) (UniProt P07333)
[9] = biological target: EPHA5 (human) (UniProt P54756)
[10] = biological target: EPHB1 (human) (UniProt P54762)
[11] = biological target: EPHB3 (human) (UniProt P54753)
[12] = biological target: FGFR3 (human) (UniProt P22607)
[13] = biological target: GRK6 (human) (UniProt P43250)
[14] = biological target: GRK7 (human) (UniProt Q8WTQ7)
[15] = biological target: GSK3A (human) (UniProt P49840)
[16] = biological target: HIPK2 (human) (UniProt Q9H2X6)
[17] = biological target: MAP3K10 (human) (UniProt Q02779)
[18] = biological target: MAP3K11 (human) (UniProt Q16584)
[19] = biological target: MAP3K3 (human) (UniProt Q99759)
[20] = biological target: MAP3K5 (human) (UniProt Q99683)
[21] = biological target: MAP4K5 (human) (UniProt Q9Y4K4)
[22] = biological target: MAPK8 (human) (UniProt P45983)
[23] = biological target: MARK2 (human) (UniProt Q7KZI7)
[24] = biological target: MET (human) (UniProt P08581)
[25] = biological target: MINK1 (human) (UniProt Q8N4C8)
[26] = biological target: MUSK (human) (UniProt O15146)
[27] = biological target: NEK6 (human) (UniProt Q9HC98)
[28] = biological target: NLK (human) (UniProt Q9UBE8)
[29] = biological target: NUAK1 (human) (UniProt O60285)
[30] = biological target: PKN1 (human) (UniProt Q16512)
[31] = biological target: PLK2 (human) (UniProt Q9NYY3)
[32] = biological target: PRKCD (human) (UniProt Q05655)
[33] = biological target: PRKG2 (human) (UniProt Q13237)
[34] = biological target: ROCK2 (human) (UniProt O75116)
[35] = biological target: ROS1 (human) (UniProt P08922)
[36] = biological target: RPS6KA2 KD1 KD2 (human) (UniProt Q15349)
[37] = biological target: RPS6KA6 KD1 KD2 (human) (UniProt Q9UK32)
[38] = biological target: RPS6KB1 (human) (UniProt P23443)
[39] = biological target: SRPK1 (human) (UniProt Q96SB4)
[40] = biological target: TEC (human) (UniProt P42680)
[41] = biological target: TSSK2 (human) (UniProt Q96PF2)

Sequence of NLK (human) (Q9UBE8 whole entry, looked up): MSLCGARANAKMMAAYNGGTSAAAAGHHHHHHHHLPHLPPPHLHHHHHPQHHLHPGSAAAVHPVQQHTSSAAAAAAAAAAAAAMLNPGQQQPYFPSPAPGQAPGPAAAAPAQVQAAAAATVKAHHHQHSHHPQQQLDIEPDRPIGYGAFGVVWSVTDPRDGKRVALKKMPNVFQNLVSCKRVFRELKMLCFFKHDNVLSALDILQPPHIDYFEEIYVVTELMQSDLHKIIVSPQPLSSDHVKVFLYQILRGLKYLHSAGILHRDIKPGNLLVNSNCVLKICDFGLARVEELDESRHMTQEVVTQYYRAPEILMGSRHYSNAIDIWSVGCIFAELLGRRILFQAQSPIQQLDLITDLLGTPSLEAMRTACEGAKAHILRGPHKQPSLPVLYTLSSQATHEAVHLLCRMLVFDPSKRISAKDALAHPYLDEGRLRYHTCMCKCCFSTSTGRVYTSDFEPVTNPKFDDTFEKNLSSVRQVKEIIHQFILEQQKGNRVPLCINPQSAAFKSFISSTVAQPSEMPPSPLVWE
Sequence of ROS1 (human) (P08922 whole entry, looked up): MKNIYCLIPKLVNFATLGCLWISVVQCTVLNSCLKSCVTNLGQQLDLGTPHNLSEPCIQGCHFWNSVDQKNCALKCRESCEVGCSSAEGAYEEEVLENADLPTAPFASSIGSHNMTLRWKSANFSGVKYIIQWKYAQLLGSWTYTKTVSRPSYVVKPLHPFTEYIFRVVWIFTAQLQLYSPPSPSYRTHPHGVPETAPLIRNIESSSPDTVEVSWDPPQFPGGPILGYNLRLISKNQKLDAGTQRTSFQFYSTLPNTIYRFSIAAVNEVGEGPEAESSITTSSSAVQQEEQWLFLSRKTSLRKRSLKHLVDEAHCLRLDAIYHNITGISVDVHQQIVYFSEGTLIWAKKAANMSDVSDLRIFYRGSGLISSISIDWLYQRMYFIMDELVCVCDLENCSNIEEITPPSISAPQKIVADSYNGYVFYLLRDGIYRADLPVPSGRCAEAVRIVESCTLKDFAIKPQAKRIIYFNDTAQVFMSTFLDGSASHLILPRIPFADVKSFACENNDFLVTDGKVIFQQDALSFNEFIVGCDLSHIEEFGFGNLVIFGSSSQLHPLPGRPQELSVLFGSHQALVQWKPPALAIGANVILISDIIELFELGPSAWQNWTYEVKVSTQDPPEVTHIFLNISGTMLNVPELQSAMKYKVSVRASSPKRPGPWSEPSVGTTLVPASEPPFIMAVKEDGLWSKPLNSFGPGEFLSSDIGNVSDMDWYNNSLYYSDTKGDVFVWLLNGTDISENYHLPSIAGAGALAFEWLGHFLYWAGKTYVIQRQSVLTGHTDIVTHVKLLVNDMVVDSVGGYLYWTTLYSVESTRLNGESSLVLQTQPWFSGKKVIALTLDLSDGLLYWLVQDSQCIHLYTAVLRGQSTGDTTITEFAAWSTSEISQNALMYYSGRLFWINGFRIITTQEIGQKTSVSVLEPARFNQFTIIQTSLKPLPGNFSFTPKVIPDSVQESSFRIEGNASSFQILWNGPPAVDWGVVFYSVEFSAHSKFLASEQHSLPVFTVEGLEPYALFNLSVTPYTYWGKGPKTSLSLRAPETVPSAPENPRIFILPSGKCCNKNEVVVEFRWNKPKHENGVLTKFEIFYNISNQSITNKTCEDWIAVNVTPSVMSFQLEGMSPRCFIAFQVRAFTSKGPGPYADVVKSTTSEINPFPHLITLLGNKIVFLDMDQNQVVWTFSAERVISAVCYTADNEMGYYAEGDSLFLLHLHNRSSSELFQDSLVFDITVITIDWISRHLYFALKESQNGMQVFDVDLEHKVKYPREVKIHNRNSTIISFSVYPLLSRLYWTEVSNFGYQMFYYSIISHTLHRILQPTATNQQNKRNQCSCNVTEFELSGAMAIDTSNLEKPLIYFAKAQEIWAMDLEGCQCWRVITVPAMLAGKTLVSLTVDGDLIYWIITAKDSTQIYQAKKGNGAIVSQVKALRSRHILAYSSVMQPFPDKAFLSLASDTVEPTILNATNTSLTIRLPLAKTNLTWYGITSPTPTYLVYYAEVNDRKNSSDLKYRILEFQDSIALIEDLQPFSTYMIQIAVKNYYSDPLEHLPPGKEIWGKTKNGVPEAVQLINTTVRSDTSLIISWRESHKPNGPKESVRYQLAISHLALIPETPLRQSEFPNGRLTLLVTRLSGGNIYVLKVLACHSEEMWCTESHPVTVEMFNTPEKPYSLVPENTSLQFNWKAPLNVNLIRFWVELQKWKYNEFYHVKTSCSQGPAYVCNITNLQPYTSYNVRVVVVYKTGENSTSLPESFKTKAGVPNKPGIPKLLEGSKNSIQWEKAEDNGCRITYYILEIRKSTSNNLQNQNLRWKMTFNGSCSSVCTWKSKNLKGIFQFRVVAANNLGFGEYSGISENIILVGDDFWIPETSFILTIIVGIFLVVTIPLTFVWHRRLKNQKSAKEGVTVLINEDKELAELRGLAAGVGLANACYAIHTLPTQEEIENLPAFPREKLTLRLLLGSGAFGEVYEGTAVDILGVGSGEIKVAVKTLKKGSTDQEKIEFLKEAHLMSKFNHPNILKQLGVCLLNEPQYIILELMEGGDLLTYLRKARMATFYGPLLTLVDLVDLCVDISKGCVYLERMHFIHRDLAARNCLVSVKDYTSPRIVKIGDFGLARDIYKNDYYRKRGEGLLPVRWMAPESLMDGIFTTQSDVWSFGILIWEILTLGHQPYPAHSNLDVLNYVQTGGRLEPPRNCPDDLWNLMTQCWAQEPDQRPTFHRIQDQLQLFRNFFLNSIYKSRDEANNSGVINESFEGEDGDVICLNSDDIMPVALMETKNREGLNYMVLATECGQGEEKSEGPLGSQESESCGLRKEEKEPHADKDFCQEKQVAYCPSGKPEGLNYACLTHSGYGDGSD
Sequence of GRK7 (human) (Q8WTQ7 whole entry, looked up): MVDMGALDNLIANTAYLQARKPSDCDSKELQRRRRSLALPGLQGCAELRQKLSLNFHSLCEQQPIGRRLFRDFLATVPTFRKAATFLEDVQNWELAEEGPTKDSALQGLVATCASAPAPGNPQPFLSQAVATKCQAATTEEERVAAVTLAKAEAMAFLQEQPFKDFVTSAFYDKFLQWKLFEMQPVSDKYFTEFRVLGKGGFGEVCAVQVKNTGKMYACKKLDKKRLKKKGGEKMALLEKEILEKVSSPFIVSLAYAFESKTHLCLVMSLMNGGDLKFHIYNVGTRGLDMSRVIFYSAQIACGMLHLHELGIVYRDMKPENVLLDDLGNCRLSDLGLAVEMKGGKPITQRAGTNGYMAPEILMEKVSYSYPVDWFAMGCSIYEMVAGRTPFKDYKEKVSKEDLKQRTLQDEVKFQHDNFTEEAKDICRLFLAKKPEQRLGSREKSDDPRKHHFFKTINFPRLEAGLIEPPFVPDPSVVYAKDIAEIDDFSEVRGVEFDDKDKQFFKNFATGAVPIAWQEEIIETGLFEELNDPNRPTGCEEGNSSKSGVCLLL
Sequence of RPS6KB1 (human) (P23443 whole entry, looked up): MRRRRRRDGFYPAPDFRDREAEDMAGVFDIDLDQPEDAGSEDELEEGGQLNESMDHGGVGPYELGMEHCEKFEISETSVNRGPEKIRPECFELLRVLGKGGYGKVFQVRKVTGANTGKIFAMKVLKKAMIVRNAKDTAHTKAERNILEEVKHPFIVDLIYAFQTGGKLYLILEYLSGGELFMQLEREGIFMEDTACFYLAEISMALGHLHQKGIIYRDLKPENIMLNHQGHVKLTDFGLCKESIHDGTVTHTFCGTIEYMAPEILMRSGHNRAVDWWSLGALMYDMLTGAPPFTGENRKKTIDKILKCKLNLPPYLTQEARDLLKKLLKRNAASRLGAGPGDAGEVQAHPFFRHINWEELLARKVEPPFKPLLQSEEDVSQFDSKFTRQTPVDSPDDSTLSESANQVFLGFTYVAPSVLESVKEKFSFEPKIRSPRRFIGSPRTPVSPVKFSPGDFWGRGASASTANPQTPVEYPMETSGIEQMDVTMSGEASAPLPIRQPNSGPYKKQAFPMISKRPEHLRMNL
Sequence of EPHB1 (human) (P54762 whole entry, looked up): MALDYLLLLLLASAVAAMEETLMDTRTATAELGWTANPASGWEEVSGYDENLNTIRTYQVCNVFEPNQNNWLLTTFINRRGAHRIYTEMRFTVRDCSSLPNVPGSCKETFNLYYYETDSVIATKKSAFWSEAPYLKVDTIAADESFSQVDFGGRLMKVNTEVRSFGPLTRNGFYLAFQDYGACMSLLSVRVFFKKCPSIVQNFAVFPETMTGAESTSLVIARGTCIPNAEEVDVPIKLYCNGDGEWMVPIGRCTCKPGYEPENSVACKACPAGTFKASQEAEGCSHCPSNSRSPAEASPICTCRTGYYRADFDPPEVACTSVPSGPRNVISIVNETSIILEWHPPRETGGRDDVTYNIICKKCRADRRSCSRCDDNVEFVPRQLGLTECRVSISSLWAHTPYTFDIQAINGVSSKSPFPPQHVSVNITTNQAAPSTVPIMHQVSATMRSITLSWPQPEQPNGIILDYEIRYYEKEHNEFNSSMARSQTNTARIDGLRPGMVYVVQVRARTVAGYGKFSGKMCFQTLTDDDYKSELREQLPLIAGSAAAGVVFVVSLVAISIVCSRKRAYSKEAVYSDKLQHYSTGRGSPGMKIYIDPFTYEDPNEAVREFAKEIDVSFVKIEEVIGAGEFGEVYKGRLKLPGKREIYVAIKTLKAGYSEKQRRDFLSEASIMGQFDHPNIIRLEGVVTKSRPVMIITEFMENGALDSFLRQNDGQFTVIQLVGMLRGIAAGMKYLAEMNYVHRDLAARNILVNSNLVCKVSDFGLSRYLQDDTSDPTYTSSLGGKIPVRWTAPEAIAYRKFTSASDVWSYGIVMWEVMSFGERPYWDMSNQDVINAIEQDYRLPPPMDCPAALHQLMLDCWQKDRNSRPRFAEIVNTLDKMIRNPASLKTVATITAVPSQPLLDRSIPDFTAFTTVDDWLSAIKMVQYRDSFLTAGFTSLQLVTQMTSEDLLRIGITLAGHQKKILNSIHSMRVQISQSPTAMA

**Q.** With `Oc1ccc(-c2nc(-c3ccc(F)cc3)c(-c3ccncc3)[nH]2)cc1` as the compound, how does the residual activity [1] read?
**A.** 99%

**Q.** And the residual activity [2]?
**A.** 98.4%

**Q.** What about the residual activity [3] of the same compound?
**A.** 98.5%

**Q.** What about the residual activity [4] of the same compound?
**A.** 96.7%

**Q.** What about the residual activity [5] of the same compound?
**A.** 96%

**Q.** What about the residual activity [6] of the same compound?
**A.** 99.4%

**Q.** What about the residual activity [7] of the same compound?
**A.** 83.4%

**Q.** And the residual activity [8]?
**A.** 96.9%

**Q.** What about the residual activity [9] of the same compound?
**A.** 90.7%

**Q.** What about the residual activity [10] of the same compound?
**A.** 96.8%

**Q.** And the residual activity [11]?
**A.** 97.7%

**Q.** And the residual activity [12]?
**A.** 99.2%

**Q.** And the residual activity [13]?
**A.** 99.7%

**Q.** What about the residual activity [14] of the same compound?
**A.** 105%

**Q.** And the residual activity [15]?
**A.** 91.1%

**Q.** What about the residual activity [16] of the same compound?
**A.** 102%

**Q.** And the residual activity [17]?
**A.** 32.8%

**Q.** And the residual activity [18]?
**A.** 25.2%

**Q.** And the residual activity [19]?
**A.** 103%

**Q.** What about the residual activity [20] of the same compound?
**A.** 105%

**Q.** What about the residual activity [21] of the same compound?
**A.** 96.6%

**Q.** And the residual activity [22]?
**A.** 98%

**Q.** What about the residual activity [23] of the same compound?
**A.** 99%

**Q.** What about the residual activity [24] of the same compound?
**A.** 94.4%

**Q.** And the residual activity [25]?
**A.** 102%

**Q.** And the residual activity [26]?
**A.** 86.8%

**Q.** And the residual activity [27]?
**A.** 99.4%

**Q.** What about the residual activity [28] of the same compound?
**A.** 46.1%

**Q.** What about the residual activity [29] of the same compound?
**A.** 97.3%

**Q.** And the residual activity [30]?
**A.** 78.9%

**Q.** And the residual activity [31]?
**A.** 98.7%

**Q.** And the residual activity [32]?
**A.** 99.3%

**Q.** And the residual activity [33]?
**A.** 94.2%

**Q.** And the residual activity [34]?
**A.** 93.6%

**Q.** And the residual activity [35]?
**A.** 89.8%

**Q.** And the residual activity [36]?
**A.** 101%

**Q.** And the residual activity [37]?
**A.** 110%

**Q.** And the residual activity [38]?
**A.** 87.8%

**Q.** And the residual activity [39]?
**A.** 109%

**Q.** And the residual activity [40]?
**A.** 106%

**Q.** What about the residual activity [41] of the same compound?
**A.** 93.1%

**Q.** With `COc1cc2nccc(Oc3ccc(NC(=S)NC(=O)c4ccccc4C)cc3)c2cc1OC` as the compound, how does the residual activity [1] read?
**A.** 102%

**Q.** And the residual activity [2]?
**A.** 95.9%

**Q.** What about the residual activity [3] of the same compound?
**A.** 99.5%

**Q.** What about the residual activity [4] of the same compound?
**A.** 86.6%

**Q.** And the residual activity [5]?
**A.** 93.2%

**Q.** What about the residual activity [6] of the same compound?
**A.** 97.7%

**Q.** What about the residual activity [7] of the same compound?
**A.** 104%

**Q.** And the residual activity [8]?
**A.** 10.5%

**Q.** What about the residual activity [9] of the same compound?
**A.** 91%

**Q.** And the residual activity [10]?
**A.** 98.5%

**Q.** What about the residual activity [11] of the same compound?
**A.** 95.7%

**Q.** What about the residual activity [12] of the same compound?
**A.** 88.8%

**Q.** And the residual activity [13]?
**A.** 91%

**Q.** What about the residual activity [14] of the same compound?
**A.** 95.6%

**Q.** What about the residual activity [15] of the same compound?
**A.** 91.4%

**Q.** And the residual activity [16]?
**A.** 99.2%

**Q.** What about the residual activity [17] of the same compound?
**A.** 91%

**Q.** What about the residual activity [18] of the same compound?
**A.** 95.5%

**Q.** And the residual activity [19]?
**A.** 105%

**Q.** And the residual activity [20]?
**A.** 106%

**Q.** What about the residual activity [21] of the same compound?
**A.** 11.1%

**Q.** What about the residual activity [22] of the same compound?
**A.** 81.3%

**Q.** And the residual activity [23]?
**A.** 82.3%

**Q.** And the residual activity [24]?
**A.** 60.4%

**Q.** And the residual activity [25]?
**A.** 90.1%

**Q.** What about the residual activity [26] of the same compound?
**A.** 95.9%

**Q.** And the residual activity [27]?
**A.** 92.4%

**Q.** What about the residual activity [28] of the same compound?
**A.** 100%

**Q.** And the residual activity [29]?
**A.** 82.5%

**Q.** What about the residual activity [30] of the same compound?
**A.** 99.2%

**Q.** What about the residual activity [31] of the same compound?
**A.** 99.5%

**Q.** And the residual activity [32]?
**A.** 90.4%

**Q.** And the residual activity [33]?
**A.** 90.5%

**Q.** What about the residual activity [34] of the same compound?
**A.** 92.5%

**Q.** What about the residual activity [35] of the same compound?
**A.** 26.7%

**Q.** What about the residual activity [36] of the same compound?
**A.** 91.1%

**Q.** What about the residual activity [37] of the same compound?
**A.** 93%

**Q.** And the residual activity [38]?
**A.** 98%

**Q.** What about the residual activity [39] of the same compound?
**A.** 98%

**Q.** What about the residual activity [40] of the same compound?
**A.** 90.8%

**Q.** And the residual activity [41]?
**A.** 86.7%
